The conditions of series [1]: mouse, in vivo.
Description: (§1) Compounds were administered to male swiss mice at a dose close to 1 mg of base/kg.
Series [2] can be described thus: Solid-state stability / hygroscopicity of the dihydrochloride forms. The class given is physicochemical. The method, then:
The tetrahydrate of compound (A) is stable for relative humidity ranging from at least 30% to 70% which is an improved property as compared to the hygroscopic nature of the previously described dihydrochloride. The tetrahydrate of compound (A) is also stable for temperatures ranging from 20° C. to 40° C.

The nature of series [3]: Comparative pharmacokinetic data in mice (plasma and brain). The following applies: male swiss mice; for AUC brain / AUC plasma: normalized at 1 mg of base/kg, 24 hours sampling.
Description: as §1
A short description of series [4]: PK results in human, Compound (A) given orally once-a-day. The class given is in vivo. The following applies: for Cmax: po, 60 ug. The method, then: Steady state seems to be attained after 7 to 8 days of treatment for the 60 μg dose.
For series [5], the system named is vigilance. As to the kind of experiment: Activity on vigilance in human. The class given is in vivo.
Series [6] has as its system H3 receptor. As to the kind of experiment: H3R occupancy in brain by PET imaging with [11C]GSK189254 in healthy volunteers. The class given is in vivo. The note with it: human.
Description: The process of imaging requires the injection of a positron-emitting radiotracer that binds to the receptor followed by the measurement of this binding using the PET scanner.
This method allows to predict the therapeutic dose of a new H3 receptor inverse agonist/antagonist in two steps: 1/the degree of receptor occupancy associated with the dose ensuring therapeutic efficacy of a known drug A is determined, 2/the dose of the new drug B ensuring the same receptor occupancy as A at therapeutic dose is evaluated.
This strategy was applied by comparing H3R occupancy in healthy volunteers receiving pitolisant, an approved and marketed H3R inverse agonist, at its oral maximal therapeutic dose of 40 mg to occupancy by Compound (A) given at several dosages.
Series [7] can be described thus: PK results in human, Compound (A) given orally once-a-day. The class given is in vivo. The note with it: for Cmax: serum, po, 90 ug.
For series [8] the following is noted: in vivo; cited from earlier work.
The target of series [9] is histamine H3 receptor (Homo sapiens, UniProt Q9Y5N1). The following applies: cited from earlier work.
Chain of histamine H3 receptor (Q9Y5N1 whole entry, species assumed): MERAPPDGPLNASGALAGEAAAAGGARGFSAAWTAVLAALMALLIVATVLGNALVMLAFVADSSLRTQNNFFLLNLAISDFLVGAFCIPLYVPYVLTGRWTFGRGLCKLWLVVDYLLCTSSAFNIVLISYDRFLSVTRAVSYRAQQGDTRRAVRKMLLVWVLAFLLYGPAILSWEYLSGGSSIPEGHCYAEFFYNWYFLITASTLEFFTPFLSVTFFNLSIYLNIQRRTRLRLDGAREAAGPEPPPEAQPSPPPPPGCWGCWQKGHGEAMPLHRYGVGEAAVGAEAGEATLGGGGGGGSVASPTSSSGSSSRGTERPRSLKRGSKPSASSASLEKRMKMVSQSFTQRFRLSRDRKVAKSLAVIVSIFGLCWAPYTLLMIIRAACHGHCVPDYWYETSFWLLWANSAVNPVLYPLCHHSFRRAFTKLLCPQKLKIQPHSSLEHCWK

Where two headings read alike, the source gives them in different places.

Turning to `C[C@H]1CCCN(CCCOc2ccc(-c3cc[n+]([O-])cc3)cc2)C1.O=C(O)c1cc2ccccc2cc1O` [Example 20, (3S)-4-{4-[3-(3-methylpiperidin-1-yl)propoxy]phenyl}pyridine 1-oxide 3-hydroxy-2-naphtoate], in [1], the “ratio of plasma AUC over the AUC of the dihydrochloride tetrahydrate” value (“ratio of plasma AUC” for short) stood at 0.6.

As to `C[C@H]1CCCN(CCCOc2ccc(-c3cc[n+]([O-])cc3)cc2)C1.Cl.Cl.O.O.O.O` [Example 4, (3S)-4-{4-[3-(3-methylpiperidin-1-yl)propoxy]phenyl}pyridine 1-oxide dihydrochloride tetrahydrate], in [2], the “stability (general)” value was “very stable”. Besides, in [2] (relative humidity ranging from at least 30% to 70%), the “stability against relative humidity” value is recorded as “stable”. In addition, the stability against temperature result in [2] (temperatures ranging from 20° C. to 40° C.) is given as “stable”. In series [3], the “ratio of plasma AUC” value is on record as 1.0, the AUC brain turned out to be 1040 ng·h/g and the AUC plasma stood at 619 ng·h/mL.

As to `C[C@H]1CCCN(CCCOc2ccc(-c3cc[n+]([O-])cc3)cc2)C1` [Compound (A), (3S)-4-{4-[3-(3-methylpiperidin-1-yl)propoxy]phenyl}pyridine 1-oxide], the “dose proportionality of serum exposure (mean Cmax and AUC0-24 h dose normalized ratios)” value in series [4] (human volunteers, between 60 and 90 μg o.d., Day 1 and Day 10) was “tendency to increase more than dose-proportionally”. In series [4] (human, 60 μg), the “decrease of total body clearance (Clss/F) after repeated dosing” value amounted to 65%, the “higher AUC0-24 h after repeated dosing (Day 10) than after a single dose (Day 1)” value is 73% and the “higher Cmax after repeated dosing (Day 10) than after a single dose (Day 1)” value is on record as 42%. This compound returned a Cmax in series [4] (human, serum, human, oral 60 μg once-a-day, after repeated dose) of 0.172 ng/mL. Besides, the Cmax in series [4] (human, serum, human, oral 60 μg, after a single dose) came out at 0.121 ng/mL. Further, in series [4] (serum, oral, human, determined at Day 10 after multiple administrations, read-out: mean t1/2 (converted)), the half-life is around 33 h. Moreover, in [5] (30 μg daily, when going to bed at night), the activity on vigilance entry was “delay in falling asleep”. For the same compound, the “effect of repeated treatment on sleep” value in [5] (90 μg once-a-day for 10 days) is on record as “some insomnia”. In addition, in series [6] (30 μg once), the “Percent H3R occupancy ± SD At through (24 h)” value is on record as −46.50 ± 12.71%. Moreover, the “potency relative to the marketed drug pitolisant” value in series [6] (doses of equal H3R occupancy) was 1,000 fold. Also, in series [7] (90 μg), the “decrease of total body clearance (Clss/F) after repeated dosing” value turned out to be 74%, the “higher AUC0-24 h after repeated administration (% accumulation)” value is on record as 113% and the “higher Cmax after repeated administration (% accumulation)” value is reported as 101%. The compound also came in with a Cmax in series [7] (oral 90 μg once-a-day, after repeated dose) of 0.344 ng/mL. In [7] (oral 90 μg, after a single dose), this compound came in with a Cmax of 0.171 ng/mL.

As to `C[C@H]1CCCN(CCCOc2ccc(-c3cc[n+]([O-])cc3)cc2)C1` [Example 5, (3S)-4-{4-[3-(3-methylpiperidin-1-yl)propoxy]phenyl}pyridine 1-oxide base], in [3], the “ratio of plasma AUC” value came out at 1.2, the AUC brain was found to be 860 ng·h/g and the AUC plasma stood at 769 ng·h/mL.

For the compound “(3S)-4-{4-[3-(3-methylpiperidin-1-yl)propoxy]phenyl}pyridine 1-oxide sesquiglycolate monohydrate [Example 21]”, in series [3], the “ratio of plasma AUC” value is recorded as 0.6, the AUC brain was determined as 484 ng·h/g and the AUC plasma came to 348 ng·h/mL.

In the case of “(3S)-4-{4-[3-(3-methylpiperidin-1-yl)propoxy]phenyl}pyridine 1-oxide orotate dihydrate [Example 17]”, in series [3], the “ratio of plasma AUC” value is 0.6, the AUC brain was found to be 529 ng·h/g and the AUC plasma worked out at 389 ng·h/mL.

On to `C[C@H]1CCCN(CCCOc2ccc(-c3cc[n+]([O-])cc3)cc2)C1.O=C(O)c1cc2ccccc2c(Cc2c(O)c(C(=O)O)cc3ccccc23)c1O` [Example 8, (3S)-4-{4-[3-(3-methylpiperidin-1-yl)propoxy]phenyl}pyridine 1-oxide pamoate], for which, in series [3], the “ratio of plasma AUC” value is 0.9, the AUC brain is 952 ng·h/g and the AUC plasma is 587 ng·h/mL.

On to `C[C@H]1CCCN(CCCOc2ccc(-c3cc[n+]([O-])cc3)cc2)C1.C[C@H]1CCCN(CCCOc2ccc(-c3cc[n+]([O-])cc3)cc2)C1.Cc1ccc(S(=O)(=O)O)cc1.Cc1ccc(S(=O)(=O)O)cc1.O.O.O.O.O` [Example 10, (3S)-4-{4-[3-(3-methylpiperidin-1-yl)propoxy]phenyl}pyridine 1-oxide para-toluenesulfonate sestertihydrate (2.5)], for which the “ratio of plasma AUC” value in series [1] was 1.2.

Turning to `Br.Br.C[C@H]1CCCN(CCCOc2ccc(-c3cc[n+]([O-])cc3)cc2)C1` [Example 16, (3S)-4-{4-[3-(3-methylpiperidin-1-yl)propoxy]phenyl}pyridine 1-oxide dibromhydrate], the “ratio of plasma AUC” value in series [1] was found to be 0.6.

As to “(3S)-4-{4-[3-(3-methylpiperidin-1-yl)propoxy]phenyl}pyridine 1-oxide 5-sulfosalicylate [Example 18]”, in [3], the “ratio of plasma AUC” value is listed as 0.6, the AUC brain was 513 ng·h/g and the AUC plasma was 400 ng·h/mL.

Regarding `C[C@H]1CCCN(CCCOc2ccc(-c3cc[n+]([O-])cc3)cc2)C1.O.O=C(O)c1ccc2ccccc2c1O` [Example 19, (3S)-4-{4-[3-(3-methylpiperidin-1-yl)propoxy]phenyl}pyridine 1-oxide 1-hydroxy-2-naphtoate monohydrate], in series [1], the “ratio of plasma AUC” value was 0.6.

Turning to `C[C@H]1CCCN(CCCOc2ccc(-c3cc[n+]([O-])cc3)cc2)C1.O=C(O)/C=C/C(=O)O` [Example 9, (3S)-4-{4-[3-(3-methylpiperidin-1-yl)propoxy]phenyl}pyridine 1-oxide fumarate], in [3], the “ratio of plasma AUC” value worked out at 0.7, the AUC brain was 882 ng·h/g and the AUC plasma amounted to 448 ng·h/mL.

With `CCO.C[C@H]1CCCN(CCCOc2ccc(-c3cc[n+]([O-])cc3)cc2)C1.C[C@H]1CCCN(CCCOc2ccc(-c3cc[n+]([O-])cc3)cc2)C1.O.O.O=S(=O)(O)c1cccc2c(S(=O)(=O)O)cccc12.O=S(=O)(O)c1cccc2c(S(=O)(=O)O)cccc12` [Example 11, (3S)-4-{4-[3-(3-methylpiperidin-1-yl)propoxy]phenyl}pyridine 1-oxide 1,5-naphtalenedisulfonate monohydrate hemiethanolate], the “ratio of plasma AUC” value in series [1] is on record as 0.7.

As for `C[C@H]1CCCN(CCCOc2ccc(-c3cc[n+]([O-])cc3)cc2)C1.O=C(O)C(=O)O` [Example 6, (3S)-4-{4-[3-(3-methylpiperidin-1-yl)propoxy]phenyl}pyridine 1-oxide oxalate], in series [3], the “ratio of plasma AUC” value came out at 0.9, the AUC brain worked out at 923 ng·h/g and the AUC plasma was determined as 562 ng·h/mL.

As for `C[C@H]1CCCN(CCCOc2ccc(-c3cc[n+]([O-])cc3)cc2)C1.O=P(O)(O)O` [Example 12, (3S)-4-{4-[3-(3-methylpiperidin-1-yl)propoxy]phenyl}pyridine 1-oxide phosphate], in series [3], the “ratio of plasma AUC” value amounted to 0.6, the AUC brain was determined as 630 ng·h/g and the AUC plasma amounted to 350 ng·h/mL.

On to `[11CH3]NC(=O)c1ccc(Oc2ccc3c(c2)CCN(C2CCC2)CC3)nc1` [[^11C]GSK189254], for which, in series [8], the brain penetration result was “good brain penetration” and the terminal half-life was 1.6 ± 0.4 h. In addition, the “affinity for the histamine H3 receptor” value in series [9] is “high affinity”.

In the case of `C[C@H]1CCCN(CCCOc2ccc(-c3cc[n+]([O-])cc3)cc2)C1.O.O.O.O=C(O)C(O)C(O)C(=O)O` [Example 7, (3S)-4-{4-[3-(3-methylpiperidin-1-yl)propoxy]phenyl}pyridine 1-oxide L-tartrate trihydrate], in [3], the “ratio of plasma AUC” value turned out to be 0.7, the AUC brain stood at 814 ng·h/g and the AUC plasma came to 447 ng·h/mL.

In the case of `C[C@H]1CCCN(CCCOc2ccc(-c3cc[n+]([O-])cc3)cc2)C1.O=S(=O)(O)O` [Example 15, (3S)-4-{4-[3-(3-methylpiperidin-1-yl)propoxy]phenyl}pyridine 1-oxide sulfate], in [3], the “ratio of plasma AUC” value is recorded as 0.8, the AUC brain was found to be 639 ng·h/g and the AUC plasma is 466 ng·h/mL.

As to `Br.C[C@H]1CCCN(CCCOc2ccc(-c3cc[n+]([O-])cc3)cc2)C1` [Example 13, (3S)-4-{4-[3-(3-methylpiperidin-1-yl)propoxy]phenyl}pyridine 1-oxide bromhydrate], in series [1], the “ratio of plasma AUC” value worked out at 0.6.

The record behind these values is patent US11179329B2, “Therapeutical use of H3-ligands” (BIOPROJET Pharma, priority 2017, dated 2021).
